Columns and labels:
ISC-enriched organoids [1] = experiment: Secondary (validation) screen, 384-well 2.5-D, ENR+CD 6 days, n=8 wells, vs ENR+CD+DMSO control: basal lysozyme secretion (LYZ.NS); type: cell-based, murine; design: key to Dose.FC.LYZ.NS: log10 fold change vs median of vehicle control wells
Method: (§1) Drugs were tested at a narrowed dose range around each treatment's identified optimal dose from the primary screen (4× below, 2× above and below).
(§2) High-throughput screening.
(§3) Secondary lysozyme secretion assay screen. Confirmatory secondary screening with primary hits was performed using the above 384-well plate method. The screen was conducted with 4-plate replicates with a base media of ENR+CD. Media was supplemented with compound at day 0 and day 3 (n=8 well replicates per dose) at four different doses: two-fold above, two-fold below, and four-fold below the optimal final dose for each respective treatment. Additionally, each plate carried a large number of ENR+DMSO or ENR+CD+DMSO (vehicle) control wells (n=100 for ATP, and n=25 for LYZ.NS and LYZ.S) for robust normalization. ATP, non-stimulated lysozyme activity and CCh-stimulated lysozyme activity was again measured and the collected data was again processed in a custom R-script, per primary screen with slight modification. Values were log10 transformed, and a plate-wise FC was calculated for each well based on the median value of ENR+CD+DMSO (vehicle) control wells to normalize plate to plate variability.

ISC-enriched organoids [2] = experiment: Primary screen, 384-well 2.5-D organoid differentiation (ENR+CD, 6 days): carbachol-induced lysozyme secretion (LYZ.S); type: cell-based, murine; details: primary screen, FC vs plate median
Text: as §2

ISC-enriched organoids [3] = experiment: Secondary (validation) screen, 384-well 2.5-D, ENR+CD 6 days, n=8 wells, vs ENR+CD+DMSO control: ATP (CTG); type: cell-based, murine; design: key to Dose.FC.CTG: log10 fold change vs median of vehicle control wells
Method: as §1, §2, §3

ISC-enriched organoids [4] = experiment: Primary screen, 384-well 2.5-D organoid differentiation (ENR+CD, 6 days): basal lysozyme secretion (LYZ.NS); type: cell-based, murine; details: for Dose.FC.LYZ.NS: primary screen, FC vs plate median; for Z.LYZ.NS: standard z score of FC
Text: as §2

ISC-enriched organoids [5] = experiment: Primary screen, 384-well 2.5-D organoid differentiation (ENR+CD, 6 days, Target Selective Inhibitor Library, vs whole-plate median): ATP (CellTiter-Glo 3D, CTG); details: for Dose.FC.CTG: primary screen, FC vs plate median; for Z.CTG: standard z score of FC
ISC-enriched organoids [6] = experiment: Secondary (validation) screen, 384-well 2.5-D, ENR+CD 6 days, n=8 wells, vs ENR+CD+DMSO control: carbachol-induced lysozyme secretion (LYZ.S); type: cell-based, murine
Method: as §1, §2, §3

With `CCc1cncnc1N1CCN(Cc2nc3ccc(C(F)(F)F)cc3[nH]2)CC1` [PF-4708671] the Dose.FC.LYZ.NS (ISC-enriched organoids [1]; Dose 0.50 uM) was 0.005, the Z.LYZ.NS (ISC-enriched organoids [1]; Dose 0.50 uM) was 0.039 and the repSSMD.LYZ.NS (ISC-enriched organoids [1]; Dose 0.50 uM) was 0.058. For the same compound, the Dose.FC.LYZ.NS (ISC-enriched organoids [1]; Dose 1.00 uM) was −0.200, the Z.LYZ.NS (ISC-enriched organoids [1]; Dose 1.00 uM) was −1.600 and the repSSMD.LYZ.NS (ISC-enriched organoids [1]; Dose 1.00 uM) was −1.909. It also gave a Dose.FC.LYZ.NS (ISC-enriched organoids [1]; Dose 4.00 uM) of 0.015, a Z.LYZ.NS (ISC-enriched organoids [1]; Dose 4.00 uM) of 0.120 and a repSSMD.LYZ.NS (ISC-enriched organoids [1]; Dose 4.00 uM) of 0.171. It also gave a Dose.FC.LYZ.NS (ISC-enriched organoids [1]; dose 2.00 uM) of −0.221, a Z.LYZ.NS (ISC-enriched organoids [1]; dose 2.00 uM) of −1.764 and a repSSMD.LYZ.NS (ISC-enriched organoids [1]; dose 2.00 uM) of −2.529. The Dose.FC.LYZ.S (ISC-enriched organoids [2]; Dose 0.08 uM) was 0.136 log 2 fold change, the Dose.FC.LYZ.S (ISC-enriched organoids [2]; Dose 0.40 uM) was 0.172 log 2 fold change and the Dose.FC.LYZ.S (ISC-enriched organoids [2]; Dose 2.00 uM) was 0.209 log 2 fold change. It also gave a Dose.FC.LYZ.S (ISC-enriched organoids [2]; Dose 10.00 uM) of −0.024 log 2 fold change, a Dose.FC.CTG (ISC-enriched organoids [3]; Dose 0.50 uM) of −0.049 and a Z.CTG (ISC-enriched organoids [3]; Dose 0.50 uM) of −0.443. The repSSMD.CTG (ISC-enriched organoids [3]; Dose 0.50 uM) was −0.324, the Dose.FC.CTG (ISC-enriched organoids [3]; Dose 1.00 uM) was −0.039 and the Z.CTG (ISC-enriched organoids [3]; Dose 1.00 uM) was −0.354. For the same compound, the repSSMD.CTG (ISC-enriched organoids [3]; Dose 1.00 uM) was −0.284, the Dose.FC.CTG (ISC-enriched organoids [3]; Dose 4.00 uM) was 0.067 and the Z.CTG (ISC-enriched organoids [3]; Dose 4.00 uM) was 0.601. For the same compound, the repSSMD.CTG (ISC-enriched organoids [3]; Dose 4.00 uM) was 0.414, the Dose.FC.CTG (ISC-enriched organoids [3]; dose 2.00 uM) was −0.076 and the Z.CTG (ISC-enriched organoids [3]; dose 2.00 uM) was −0.684. The repSSMD.CTG (ISC-enriched organoids [3]; dose 2.00 uM) was −0.558, the Dose.FC.LYZ.NS (ISC-enriched organoids [4]; Dose 0.08 uM) was 0.075 log 2 fold change and the Z.LYZ.NS (ISC-enriched organoids [4]; Dose 0.08 uM) was 0.654. For the same compound, the Dose.FC.LYZ.NS (ISC-enriched organoids [4]; Dose 0.40 uM) was 0.122 log 2 fold change, the Z.LYZ.NS (ISC-enriched organoids [4]; Dose 0.40 uM) was 1.059 and the Dose.FC.LYZ.NS (ISC-enriched organoids [4]; Dose 2.00 uM) was 0.198 log 2 fold change. For the same compound, the Z.LYZ.NS (ISC-enriched organoids [4]; Dose 2.00 uM) was 1.721, the Dose.FC.LYZ.NS (ISC-enriched organoids [4]; Dose 10.00 uM) was 0.034 log 2 fold change and the Z.LYZ.NS (ISC-enriched organoids [4]; Dose 10.00 uM) was 0.297. It also gave a Dose.FC.CTG (ISC-enriched organoids [5]; Dose 0.08 uM) of 0.261 log 2 fold change, a Z.CTG (ISC-enriched organoids [5]; Dose 0.08 uM) of 0.623 and a Dose.FC.CTG (ISC-enriched organoids [5]; Dose 0.40 uM) of 0.268 log 2 fold change. The Z.CTG (ISC-enriched organoids [5]; Dose 0.40 uM) was 0.640, the Dose.FC.CTG (ISC-enriched organoids [5]; Dose 2.00 uM) was 0.302 log 2 fold change and the Z.CTG (ISC-enriched organoids [5]; Dose 2.00 uM) was 0.721. For the same compound, the Dose.FC.CTG (ISC-enriched organoids [5]; Dose 10.00 uM) was −0.321 log 2 fold change, the Z.CTG (ISC-enriched organoids [5]; Dose 10.00 uM) was −0.766 and the Z.LYZ.S (ISC-enriched organoids [6]; Dose 0.50 uM) was −0.305. For the same compound, the “log10 fold change in stimulated lysozyme secretion vs vehicle control” value (from here on “log10 fold change”) (ISC-enriched organoids [6]; Dose 0.50 uM) was −0.040, the repSSMD.LYZ.S (ISC-enriched organoids [6]; Dose 0.50 uM) was −0.496 and the Z.LYZ.S (ISC-enriched organoids [6]; Dose 1.00 uM) was −1.879. For the same compound, the “log10 fold change” value (ISC-enriched organoids [6]; Dose 1.00 uM) was −0.245, the repSSMD.LYZ.S (ISC-enriched organoids [6]; Dose 1.00 uM) was −2.451 and the Z.LYZ.S (ISC-enriched organoids [6]; Dose 4.00 uM) was −0.320. For the same compound, the “log10 fold change” value (ISC-enriched organoids [6]; Dose 4.00 uM) was −0.042, the repSSMD.LYZ.S (ISC-enriched organoids [6]; Dose 4.00 uM) was −0.503 and the Z.LYZ.S (ISC-enriched organoids [6]; dose 2.00 uM) was −2.088. For the same compound, the “log10 fold change” value (ISC-enriched organoids [6]; dose 2.00 uM) was −0.272 and the repSSMD.LYZ.S (ISC-enriched organoids [6]; dose 2.00 uM) was −3.604.

Reference: patent US20230398130A1, “METHODS AND COMPOSITIONS FOR DIFFERENTIATING STEM CELLS” (Massachusetts Institute of Technology, priority 2020, published 2023)
